{"source": "patent US20230023092A1", "about": "“TREATMENT OF DEPRESSION AND OTHER VARIOUS DISORDERS WITH PSILOCYBIN” (COMPASS […], priority 2019, published 2023)", "key": {"subjects": {"test_system": "subjects", "conditions": "prevalence unknown but likely; cited from earlier work"}, "healthy subjects [1]": {"test_system": "healthy subjects", "assay": "NEO-Five Factor Inventory (NEO-FFI)", "assay_type": "in vivo, human", "experimental": "In some embodiments, the NEO-Five Factor Inventory (NEO-FFI) test is used to evaluate the safety and/or efficacy of psilocybin. The NEO-FFI evaluates 5 broad domains of personality—Neuroticism, Extroversion, Openness, Agreeableness and Conscientiousness.\nThe Neuroticism Extraversion Openness-Five Factor Inventory (NEO-FFI) and Symptom Checklist-90 Item (SCL-90) were administered. Details of the MMRM applied to the change from baseline scores for the NEO-FFI and SCL-90 are provided below in Table 2Q."}, "healthy subjects [2]": {"test_system": "healthy subjects", "assay": "CANTAB Paired Associates Learning (PALTEA)", "assay_type": "in vivo, human", "conditions": "Day 28", "excerpt": "In some embodiments, the Paired Associates Learning (PAL) test is utilized to evaluate safety and/or efficacy of psilocybin. The PAL task is a measure of visuo-spatial memory in which study subjects are required to remember locations at which visual stimuli are located. […] One or more of them will contain a pattern. […] If the subject makes an error, the boxes are opened in sequence again to remind the subject of the locations of the patterns. Increased difficulty levels can be used to test high-functioning, healthy individuals. The primary metric for this test is the number of errors made. This test takes approximately 8 min to complete. […]\nThe following list of outcome measures are non-exhaustive. • a. The short-term change from Baseline (Day −1 [Visit 2]) to Day 7 (Visit 5) in cognitive measures of attention, spatial and working memory and executive function was measured by a composite score of the CANTAB Panel (Spatial Working Memory [SWM], Rapid Visual Information Processing [RVP], Paired Associates Learning [PAL]). • b. The short-term change from Baseline (Day −1 [Visit 2]) to Day 7 (Visit 5) in Social Cognition Panel scales (Pictorial Empathy Test [PET], Reading the Mind in the Eyes Test [RMET], Toronto Empathy Questionnaire [TEQ], Social Value Orientation [SVO], Scale of Social Responsibility [SSR]). • c. […]"}, "[3]": {"conditions": "Day 7, psilocybin 10 mg - placebo"}, "[4]": {"conditions": "Day 7, psilocybin 25 mg - 10 mg"}, "[5]": {"conditions": "Day 7, psilocybin 25 mg - placebo"}, "[6]": {"conditions": "Day 84, psilocybin 10 mg - placebo"}, "[7]": {"conditions": "Day 84, psilocybin 25 mg - 10 mg"}, "[8]": {"conditions": "Day 84, psilocybin 25 mg - placebo"}}}
{"compound": "CN(C)CCc1c[nH]c2cccc(OP(=O)(O)O)c12", "note": "[Psilocybin, psilocybin]", "values": [{"measurement": "Frequency of rare side effects: HPPD/flashbacks; worsening of mental state after drug experience", "setting": "subjects", "result": "unknown but likely <2%)"}, {"measurement": "NEO agreeableness change from baseline, LS mean", "setting": "healthy subjects [1]; Day 7, psilocybin 10 mg", "result": "−0.2"}, {"measurement": "NEO conscientiousness change from baseline, LS mean", "setting": "healthy subjects [1]; Day 7, psilocybin 10 mg", "result": "−0.1"}, {"measurement": "NEO extraversion change from baseline, LS mean", "setting": "healthy subjects [1]; Day 7, psilocybin 10 mg", "result": 0.3}, {"measurement": "NEO neuroticism change from baseline, LS mean", "setting": "healthy subjects [1]; Day 7, psilocybin 10 mg", "result": 0.2}, {"measurement": "NEO openness change from baseline, LS mean", "setting": "healthy subjects [1]; Day 7, psilocybin 10 mg", "result": 0.3}, {"measurement": "NEO agreeableness change from baseline, LS mean difference", "setting": "healthy subjects [1]; [3]", "result": "−0.4"}, {"measurement": "NEO conscientiousness change from baseline, LS mean difference", "setting": "healthy subjects [1]; [3]", "result": 0.4}, {"measurement": "NEO extraversion change from baseline, LS mean difference", "setting": "healthy subjects [1]; [3]", "result": 0.4}, {"measurement": "NEO neuroticism change from baseline, LS mean difference", "setting": "healthy subjects [1]; [3]", "result": "−0.2"}, {"measurement": "NEO openness change from baseline, LS mean difference", "setting": "healthy subjects [1]; [3]", "result": 1.1}, {"measurement": "NEO agreeableness change from baseline, LS mean", "setting": "healthy subjects [1]; Day 7, psilocybin 25 mg", "result": 0.1}, {"measurement": "NEO conscientiousness change from baseline, LS mean", "setting": "healthy subjects [1]; Day 7, psilocybin 25 mg", "result": 0.1}, {"measurement": "NEO extraversion change from baseline, LS mean", "setting": "healthy subjects [1]; Day 7, psilocybin 25 mg", "result": 0.3}, {"measurement": "NEO neuroticism change from baseline, LS mean", "setting": "healthy subjects [1]; Day 7, psilocybin 25 mg", "result": 0.2}, {"measurement": "NEO openness change from baseline, LS mean", "setting": "healthy subjects [1]; Day 7, psilocybin 25 mg", "result": 0.4}, {"measurement": "NEO agreeableness change from baseline, LS mean difference", "setting": "healthy subjects [1]; [4]", "result": 0.4}, {"measurement": "NEO conscientiousness change from baseline, LS mean difference", "setting": "healthy subjects [1]; [4]", "result": 0.3}, {"measurement": "NEO extraversion change from baseline, LS mean difference", "setting": "healthy subjects [1]; [4]", "result": 0.1}, {"measurement": "NEO neuroticism change from baseline, LS mean difference", "setting": "healthy subjects [1]; [4]", "result": "−0.0"}, {"measurement": "NEO openness change from baseline, LS mean difference", "setting": "healthy subjects [1]; [4]", "result": 0.1}, {"measurement": "NEO agreeableness change from baseline, LS mean difference", "setting": "healthy subjects [1]; [5]", "result": "−0.1"}, {"measurement": "NEO conscientiousness change from baseline, LS mean difference", "setting": "healthy subjects [1]; [5]", "result": 0.7}, {"measurement": "NEO extraversion change from baseline, LS mean difference", "setting": "healthy subjects [1]; [5]", "result": 0.5}, {"measurement": "NEO neuroticism change from baseline, LS mean difference", "setting": "healthy subjects [1]; [5]", "result": 0.2}, {"measurement": "NEO openness change from baseline, LS mean difference", "setting": "healthy subjects [1]; [5]", "result": 1.2}, {"measurement": "NEO agreeableness change from baseline, LS mean", "setting": "healthy subjects [1]; Day 84, psilocybin 10 mg", "result": "−0.9"}, {"measurement": "NEO conscientiousness change from baseline, LS mean", "setting": "healthy subjects [1]; Day 84, psilocybin 10 mg", "result": "−1.3"}, {"measurement": "NEO extraversion change from baseline, LS mean", "setting": "healthy subjects [1]; Day 84, psilocybin 10 mg", "result": "−0.9"}, {"measurement": "NEO neuroticism change from baseline, LS mean", "setting": "healthy subjects [1]; Day 84, psilocybin 10 mg", "result": 2.1}, {"measurement": "NEO openness change from baseline, LS mean", "setting": "healthy subjects [1]; Day 84, psilocybin 10 mg", "result": 0.4}, {"measurement": "NEO agreeableness change from baseline, LS mean difference", "setting": "healthy subjects [1]; [6]", "result": "−0.8"}, {"measurement": "NEO conscientiousness change from baseline, LS mean difference", "setting": "healthy subjects [1]; [6]", "result": 0.2}, {"measurement": "NEO extraversion change from baseline, LS mean difference", "setting": "healthy subjects [1]; [6]", "result": "−0.7"}, {"measurement": "NEO neuroticism change from baseline, LS mean difference", "setting": "healthy subjects [1]; [6]", "result": 0.3}, {"measurement": "NEO openness change from baseline, LS mean difference", "setting": "healthy subjects [1]; [6]", "result": 1.1}, {"measurement": "NEO agreeableness change from baseline, LS mean", "setting": "healthy subjects [1]; Day 84, psilocybin 25 mg", "result": "−0.9"}, {"measurement": "NEO conscientiousness change from baseline, LS mean", "setting": "healthy subjects [1]; Day 84, psilocybin 25 mg", "result": "−0.1"}, {"measurement": "NEO extraversion change from baseline, LS mean", "setting": "healthy subjects [1]; Day 84, psilocybin 25 mg", "result": "−0.7"}, {"measurement": "NEO neuroticism change from baseline, LS mean", "setting": "healthy subjects [1]; Day 84, psilocybin 25 mg", "result": 0.8}, {"measurement": "NEO openness change from baseline, LS mean", "setting": "healthy subjects [1]; Day 84, psilocybin 25 mg", "result": 0.3}, {"measurement": "NEO agreeableness change from baseline, LS mean difference", "setting": "healthy subjects [1]; [7]", "result": 0.1}, {"measurement": "NEO conscientiousness change from baseline, LS mean difference", "setting": "healthy subjects [1]; [7]", "result": 1.2}, {"measurement": "NEO extraversion change from baseline, LS mean difference", "setting": "healthy subjects [1]; [7]", "result": 0.2}, {"measurement": "NEO neuroticism change from baseline, LS mean difference", "setting": "healthy subjects [1]; [7]", "result": "−1.3"}, {"measurement": "NEO openness change from baseline, LS mean difference", "setting": "healthy subjects [1]; [7]", "result": "−0.7"}, {"measurement": "NEO agreeableness change from baseline, LS mean difference", "setting": "healthy subjects [1]; [8]", "result": "−0.7"}, {"measurement": "NEO conscientiousness change from baseline, LS mean difference", "setting": "healthy subjects [1]; [8]", "result": 1.4}, {"measurement": "NEO extraversion change from baseline, LS mean difference", "setting": "healthy subjects [1]; [8]", "result": "−0.5"}, {"measurement": "NEO neuroticism change from baseline, LS mean difference", "setting": "healthy subjects [1]; [8]", "result": "−1.0"}, {"measurement": "NEO openness change from baseline, LS mean difference", "setting": "healthy subjects [1]; [8]", "result": 0.4}, {"measurement": "PALTEA improvement compared to placebo (LS mean difference from placebo)", "setting": "healthy subjects [2]; 10 mg", "result": "~2", "unit": "point"}, {"measurement": "PALTEA improvement compared to placebo (LS mean difference from placebo)", "setting": "healthy subjects [2]; 25 mg", "result": "~2", "unit": "point"}]}
